Assay results as given in US20040203067A1, “Methods for cancer prognosis and screening antiproliferative agents” (Temple University - Of The Commonwealth System of Higher …, priority 1998, published 2004).

Key:
[1] = test system: BT20 cells; test: Killing of BT20 cells determined by Trypan blue exclusion; format: cell-based, human; conditions: 2.5 μM in DMSO, within 72 hours of treatment
[2] = test system: phospho-STAT-3; test: Phospho-STAT-3 immunoassay (Western blot) in BT20 breast cancer cells; format: cell-based, human; conditions: 25 μM
Procedure: Human breast carcinoma cell lines, BT20, 126, T47D, MCF-7, ZR75, BT474, 415, and 435 were maintained in Dulbecco's modified eagle medium (DMEM), supplemented with 10% fetal bovine serum (FBS) (complete medium) in a 37° C. incubator with 5% CO2. STAT-3 (C-20) antibody, which recognizes phosphorylated and non-phosphorylated STAT-3, was purchased from Santa Cruz Biotechnologies and utilized as a positive control. Phospho-STAT-3 antibody was purchased from New England Biolabs. Rabbit anti-mouse antibody (secondary antibody for anti-STAT-3 and antiphospho-STAT-3) were purchased from Amersham International.
BT-20 cells were seeded at a density of 2×10^6 cells per 100 mm diameter dish and allowed to grow for 24 hours. Fresh medium was added to each plate 2 hours before treatment with the compound. The compound was dissolved in DMSO to make 5 mM stock solution and added to the medium (10 ml) to obtain a final concentration of 25 μM. DMSO alone was added to the control cells to study the effect of vehicle. […]
Equal amounts total protein ([…]) were run in each lane of SDS-PAGE gel (10%) and transferred to IMMOBILON-P (Millipore, USA). […] The antibody was detected using the ECL Western blotting analysis kit (Amersham International) following the manufacturer's instructions.

O=S(=O)(/C=C/c1ccc(F)cc1)Cc1ccc(Cl)cc1 [FRI-20, E-4-fluorostyryl 4-chlorobenzyl sulfone]
BT20 cells killed [1]: more than 95%
phospho-STAT-3 staining after treatment ([2]; 48 hours at 37° C., phospho-STAT-3 antibody Western blot (FIG. 9)): complete loss of phospho-STAT-3
STAT-3 staining (STAT-3 expression) after treatment ([2]; 48 hours, STAT-3 antibody Western blot (FIG. 9)): stained positive for STAT-3
